Laboratory results published in patent US11998539B2, “Substituted aminoquinolones as DGKalpha inhibitors for immune activation” (Bayer Aktiengesellschaft, priority 2019, dated 2024).

Target: DGKα (Homo sapiens (Human), UniProt P23743)
Assay: Human DGKα kinase activity inhibition assay (ADP-Glo)
Format: biochemical
Settings: recombinant full-length human DGKα, 55 μM ATP, 7 μM 1,2-dioleoyl-sn-glycerol, read-out: IC50 values of examples in in vitro human DGKa kinase activity inhibition assays
Outline: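 Recombinant full-length human DGKα (C-terminal FLAG, from insect cells) phosphorylated 1,2-dioleoyl-sn-glycerol presented in octyl-glucopyranoside micelles. ADP formed was quantified by ADP-Glo luminescence. Compounds were added from 100-fold DMSO stocks.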

DGKα, sequence (P23743 other isoform, or with tags, fused parts or gaps): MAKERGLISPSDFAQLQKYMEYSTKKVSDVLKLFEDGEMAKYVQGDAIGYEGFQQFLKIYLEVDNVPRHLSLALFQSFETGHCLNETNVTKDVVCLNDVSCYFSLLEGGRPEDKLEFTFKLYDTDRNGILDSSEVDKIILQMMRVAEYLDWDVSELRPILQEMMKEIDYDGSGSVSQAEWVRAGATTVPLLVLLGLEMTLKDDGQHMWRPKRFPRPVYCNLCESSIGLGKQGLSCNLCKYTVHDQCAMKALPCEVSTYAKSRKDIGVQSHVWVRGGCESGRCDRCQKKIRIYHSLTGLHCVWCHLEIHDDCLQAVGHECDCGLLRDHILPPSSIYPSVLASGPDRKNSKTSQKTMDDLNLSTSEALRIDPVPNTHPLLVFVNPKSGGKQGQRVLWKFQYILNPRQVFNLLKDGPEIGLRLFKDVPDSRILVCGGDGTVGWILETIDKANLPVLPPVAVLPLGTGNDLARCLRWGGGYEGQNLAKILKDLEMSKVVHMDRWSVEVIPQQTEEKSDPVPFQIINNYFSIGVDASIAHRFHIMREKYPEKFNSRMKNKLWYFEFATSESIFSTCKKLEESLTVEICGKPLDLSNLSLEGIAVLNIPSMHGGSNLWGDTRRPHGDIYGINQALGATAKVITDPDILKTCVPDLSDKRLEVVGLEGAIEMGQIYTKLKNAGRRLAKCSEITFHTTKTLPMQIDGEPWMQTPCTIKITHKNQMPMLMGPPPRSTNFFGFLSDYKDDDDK

| Structure (SMILES) | IC50 [nM] |
| --- | --- |
| COC1(c2nc3ccccc3o2)CCN(c2c(C#N)c(=O)n(C)c3ccccc23)CC1 [Example 390, 4-[4-(1,3-benzoxazol-2-yl)-4-methoxypiperidin-1-yl]-1-methyl-2-oxo-1,2-dihydroquinoline-3-carbonitrile] | 3.5 |
| COCc1ccc2oc(C3(C)CCN(c4c(C#N)c(=O)n(C)c5ccccc45)CC3)nc2c1 [Example 391, 4-{4-[5-(methoxymethyl)-1,3-benzoxazol-2-yl]-4-methylpiperidin-1-yl}-1-methyl-2-oxo-1,2-dihydroquinoline-3-carbonitrile] | 8.3 |
| COCc1ccc2nc(C3(C)CCN(c4c(C#N)c(=O)n(C)c5ccccc45)CC3)oc2c1 [Example 392, 4-{4-[6-(methoxymethyl)-1,3-benzoxazol-2-yl]-4-methylpiperidin-1-yl}-1-methyl-2-oxo-1,2-dihydroquinoline-3-carbonitrile] | 6.7 |
| COc1ccc2oc(C3(F)CCN(c4c(C#N)c(=O)n(C)c5ccccc45)CC3)nc2c1 [Example 393, 4-[4-fluoro-4-(5-methoxy-1,3-benzoxazol-2-yl)piperidin-1-yl]-1-methyl-2-oxo-1,2-dihydroquinoline-3-carbonitrile] | 106 |
| Cn1c(=O)c(C#N)c(N2CCC(c3nc4ccc(C5CC5)cc4o3)CC2)c2ccccc21 [Example 395, 4-[4-(6-cyclopropyl-1,3-benzoxazol-2-yl)piperidin-1-yl]-1-methyl-2-oxo-1,2-dihydroquinoline-3-carbonitrile] | 2.4 |
| Cc1ccc2oc(C3CCN(c4c(C#N)c(=O)n(C)c5ccc(Br)cc45)CC3)nc2c1 [Example 396, 6-bromo-1-methyl-4-[4-(5-methyl-1,3-benzoxazol-2-yl)piperidin-1-yl]-2-oxo-1,2-dihydroquinoline-3-carbonitrile] | 0.9 |
| Cc1ccc2oc(C3CCN(c4c(C#N)c(=O)n(C)c5c(Br)cccc45)CC3)nc2c1 [Example 397, 8-bromo-1-methyl-4-[4-(5-methyl-1,3-benzoxazol-2-yl)piperidin-1-yl]-2-oxo-1,2-dihydroquinoline-3-carbonitrile] | 399 |
| Cc1ccc2oc(C3CCN(c4c(C#N)c(=O)n(C)c5cc(N(C)C6COC6)ccc45)CC3)nc2c1 [Example 398, 1-methyl-4-[4-(5-methyl-1,3-benzoxazol-2-yl)piperidin-1-yl]-7-[methyl(oxetan-3-yl)amino]-2-oxo-1,2-dihydroquinoline-3-carbonitrile] | 1.7 |
| Cc1ccc2oc(C3CCN(c4c(C#N)c(=O)n(C)c5cc(N(C)CCO)ccc45)CC3)nc2c1 [Example 399, 7-[(2-hydroxyethyl)(methyl)amino]-1-methyl-4-[4-(5-methyl-1,3-benzoxazol-2-yl)piperidin-1-yl]-2-oxo-1,2-dihydroquinoline-3-carbonitrile] | 0.5 |
| Cc1ccc2oc(C3CCN(c4c(C#N)c(=O)n(C)c5cc(N(C)CC#N)ccc45)CC3)nc2c1 [Example 401, 7-[(cyanomethyl)(methyl)amino]-1-methyl-4-[4-(5-methyl-1,3-benzoxazol-2-yl)piperidin-1-yl]-2-oxo-1,2-dihydroquinoline-3-carbonitrile] | 0.8 |
| COc1ccc2c(c1)c(N1CCC(c3nc4cc(C)ccc4o3)CC1)c(C#N)c(=O)n2C [Example 402, 6-methoxy-1-methyl-4-[4-(5-methyl-1,3-benzoxazol-2-yl)piperidin-1-yl]-2-oxo-1,2-dihydroquinoline-3-carbonitrile] | 16 |
| Cc1ccc2oc(C3CCN(c4c(C#N)c(=O)n(C)c5ccc(C#N)cc45)CC3)nc2c1 [Example 403, 1-methyl-4-[4-(5-methyl-1,3-benzoxazol-2-yl)piperidin-1-yl]-2-oxo-1,2-dihydroquinoline-3,6-dicarbonitrile] | 2 |
| Cc1ccc2oc(C3CCN(c4c(C#N)c(=O)n(C)c5ccc(C(N)=O)cc45)CC3)nc2c1 [Example 404, 3-cyano-1-methyl-4-[4-(5-methyl-1,3-benzoxazol-2-yl)piperidin-1-yl]-2-oxo-1,2-dihydroquinoline-6-carboxamide] | 5.3 |
| CCOc1ccc2c(c1)c(N1CCC(c3nc4cc(C)ccc4o3)CC1)c(C#N)c(=O)n2C [Example 405, 6-ethoxy-1-methyl-4-[4-(5-methyl-1,3-benzoxazol-2-yl)piperidin-1-yl]-2-oxo-1,2-dihydroquinoline-3-carbonitrile] | 41 |
| Cc1ccc2oc(C3CCN(c4c(C#N)c(=O)n(C)c5ccc(OCC(C)(F)F)cc45)CC3)nc2c1 [Example 406, 6-(2,2-difluoropropoxy)-1-methyl-4-[4-(5-methyl-1,3-benzoxazol-2-yl)piperidin-1-yl]-2-oxo-1,2-dihydroquinoline-3-carbonitrile] | 36 |
| Cc1ccc2oc(C3CCN(c4c(C#N)c(=O)n(C)c5ccc(OCC(F)F)cc45)CC3)nc2c1 [Example 407, 6-(2,2-difluoroethoxy)-1-methyl-4-[4-(5-methyl-1,3-benzoxazol-2-yl)piperidin-1-yl]-2-oxo-1,2-dihydroquinoline-3-carbonitrile] | 48 |

| Structure (SMILES) | IC50 [nM] |
| --- | --- |
| Cc1ccc2oc(C3CCN(c4c(C#N)c(=O)n(C)c5ccc(OCC6CC6)cc45)CC3)nc2c1 [Example 408, 6-(cyclopropylmethoxy)-1-methyl-4-[4-(5-methyl-1,3-benzoxazol-2-yl)piperidin-1-yl]-2-oxo-1,2-dihydroquinoline-3-carbonitrile] | 15 |
| Cc1ccc2oc(C3CCN(c4c(C#N)c(=O)n(C)c5ccc(C6CCC6)cc45)CC3)nc2c1 [Example 409, 6-cyclobutyl-1-methyl-4-[4-(5-methyl-1,3-benzoxazol-2-yl)piperidin-1-yl]-2-oxo-1,2-dihydroquinoline-3-carbonitrile] | 8.4 |
| Cc1ccc2oc(C3CCN(c4c(C#N)c(=O)n(C)c5ccc(C6CCC6(C)C)cc45)CC3)nc2c1 (stereo not shown) [Example 410, 6-[2,2-dimethylcyclobutyl]-1-methyl-4-[4-(5-methyl-1,3-benzoxazol-2-yl)piperidin-1-yl]-2-oxo-1,2-dihydroquinoline-3-carbonitrile] | 51 |
| C=C(c1ccc2c(c1)c(N1CCC(c3nc4cc(C)ccc4o3)CC1)c(C#N)c(=O)n2C)C(F)(F)F [Example 411, 1-methyl-4-[4-(5-methyl-1,3-benzoxazol-2-yl)piperidin-1-yl]-2-oxo-6-(3,3,3-trifluoroprop-1-en-2-yl)-1,2-dihydroquinoline-3-carbonitrile] | 5.1 |
| Cc1ccc2oc(C3CCN(c4c(C#N)c(=O)n(C)c5ccc(C6(C(F)(F)F)CC6)cc45)CC3)nc2c1 [Example 412, 1-methyl-4-[4-(5-methyl-1,3-benzoxazol-2-yl)piperidin-1-yl]-2-oxo-6-[1-(trifluoromethyl)cyclopropyl]-1,2-dihydroquinoline-3-carbonitrile] | 21 |
| Cc1ccc2oc(C3CCN(c4c(C#N)c(=O)n(C)c5cc(OCC(N)=O)ccc45)CC3)nc2c1 [Example 413, 2-({3-cyano-1-methyl-4-[4-(5-methyl-1,3-benzoxazol-2-yl)piperidin-1-yl]-2-oxo-1,2-dihydroquinolin-7-yl}oxy)acetamide] | 1 |
| Cc1ccc2oc(C3CCN(c4c(C#N)c(=O)n(C)c5cc(OC6CCCOC6)ccc45)CC3)nc2c1 (stereo not shown) [Example 414, 1-methyl-4-[4-(5-methyl-1,3-benzoxazol-2-yl)piperidin-1-yl]-7-{[oxan-3-yl]oxy}-2-oxo-1,2-dihydroquinoline-3-carbonitrile] | 1.3 |
| Cc1ccc2oc(C3CCN(c4c(C#N)c(=O)n(C)c5cc(OCC(=O)O)ccc45)CC3)nc2c1 [Example 416, ({3-cyano-1-methyl-4-[4-(5-methyl-1,3-benzoxazol-2-yl)piperidin-1-yl]-2-oxo-1,2-dihydroquinolin-7-yl}oxy)acetic acid] | 34 |
| Cc1ccc2oc(C3(C)CCN(c4c(C#N)c(=O)n(C)c5cc(NC6CC6)ccc45)CC3)nc2c1 [Example 418, 7-(cyclopropylamino)-1-methyl-4-[4-methyl-4-(5-methyl-1,3-benzoxazol-2-yl)piperidin-1-yl]-2-oxo-1,2-dihydroquinoline-3-carbonitrile] | 1.4 |
| COc1cc2c(cc1C)c(N1CCC(c3nc4cc(C)ccc4o3)CC1)c(C#N)c(=O)n2C [Example 419, 7-methoxy-1,6-dimethyl-4-[4-(5-methyl-1,3-benzoxazol-2-yl)piperidin-1-yl]-2-oxo-1,2-dihydroquinoline-3-carbonitrile] | 4.6 |
| COc1cc2c(cc1Br)c(N1CCC(F)(c3nc4cc(C)ccc4o3)CC1)c(C#N)c(=O)n2C [Example 420, 6-bromo-4-[4-fluoro-4-(5-methyl-1,3-benzoxazol-2-yl)piperidin-1-yl]-7-methoxy-1-methyl-2-oxo-1,2-dihydroquinoline-3-carbonitrile] | 0.6 |
| Cc1ccc2oc(C3CCN(c4c(C#N)c(=O)n(C)c5cc([N+](=O)[O-])c(C)cc45)CC3)nc2c1 [Example 421, 1,6-dimethyl-4-[4-(5-methyl-1,3-benzoxazol-2-yl)piperidin-1-yl]-7-nitro-2-oxo-1,2-dihydroquinoline-3-carbonitrile] | 137 |
| Cc1ccc2oc(C3CCN(c4c(C#N)c(=O)n(C)c5cc(O)c(Br)cc45)CC3)nc2c1 [Example 422, 6-bromo-7-hydroxy-1-methyl-4-[4-(5-methyl-1,3-benzoxazol-2-yl)piperidin-1-yl]-2-oxo-1,2-dihydroquinoline-3-carbonitrile] | 0.7 |
| Cc1ccc2oc(C3(C)CCN(c4c(C#N)c(=O)n(C)c5cc(O)c(Br)cc45)CC3)nc2c1 [Example 423, 6-bromo-7-hydroxy-1-methyl-4-[4-methyl-4-(5-methyl-1,3-benzoxazol-2-yl)piperidin-1-yl]-2-oxo-1,2-dihydroquinoline-3-carbonitrile] | 1 |
| Cc1ccc2oc(C3(C)CCN(c4c(C#N)c(=O)n(C)c5cc(O)c(C#N)cc45)CC3)nc2c1 [Example 426, 7-hydroxy-1-methyl-4-[4-methyl-4-(5-methyl-1,3-benzoxazol-2-yl)piperidin-1-yl]-2-oxo-1,2-dihydroquinoline-3,6-dicarbonitrile] | 13 |
